{"source": "patent US8440694B2", "about": "“Quinoline compounds suitable for treating disorders that respond to modulation of the serotonin-5-HT6 receptor” (Abbott GmbH & Co. KG, priority 2007, dated 2013)", "molecular_target": "T1, h-5-HT6 receptor (Homo sapiens, UniProt P50406)", "T1 construct": "expressed in transfected cells", "T1 sequence (P50406 whole entry)": "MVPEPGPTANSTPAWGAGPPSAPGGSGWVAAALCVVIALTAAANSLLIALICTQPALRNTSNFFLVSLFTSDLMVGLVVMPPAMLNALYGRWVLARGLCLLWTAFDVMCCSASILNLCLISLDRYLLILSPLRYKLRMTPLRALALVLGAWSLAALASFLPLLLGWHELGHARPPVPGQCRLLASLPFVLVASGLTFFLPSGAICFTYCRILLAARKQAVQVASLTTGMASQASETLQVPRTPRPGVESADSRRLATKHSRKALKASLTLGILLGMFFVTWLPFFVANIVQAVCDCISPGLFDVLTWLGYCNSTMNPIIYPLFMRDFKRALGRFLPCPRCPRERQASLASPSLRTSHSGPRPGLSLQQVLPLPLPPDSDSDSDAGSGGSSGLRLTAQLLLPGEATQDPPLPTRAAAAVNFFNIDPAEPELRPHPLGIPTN", "assay": "5-HT6 receptor binding assay (displacement of [3H]-LSD)", "conditions": "membranes of HEK293 cells stably expressing h-5-HT6 receptor, [3H]-LSD displacement", "experimental": "Displacement of Radioligands Binding to the Following Cloned Human Receptors\nCells from stable clonal cell lines expressing the corresponding receptor (5-HT6, α1-adrenergic, dopamine D2 or histamine H1 receptors) were washed with PBS (w/o Ca^++, Mg^++) and harvested in PBS with 0.02% EDTA. The cells were collected by centrifugation at 500 g for 10 min. at 4° C., washed with PBS and centrifuged (500 g, 10 min. 4° C.). The pellets were stored at −80° C. until use. For membrane preparation, the thawed cell pellet was resuspended in ice-cold sucrose buffer (0.25 M sucrose, 10 mM Hepes (pH 7.4), 1 mM Phenylmethylsulfonyl fluoride (PMSF) in DMSO, 5 μg/ml Pepstatin-A, 3 mM EDTA, 0.025% Bacitracin) and homogenized with a Branson Sonifier W-250 (Settings: Timer 4; Output Control 3; Duty Cycle constant; 2 to 3 cycles). Cell disruption was checked with the aid of a microscope. Remaining unbroken cells were pelleted at 1.000 g for 10 min. at 4° C. The sucrose buffer supernatant was then centrifuged at 60.000 g for 1 h at 4° C. (Beckman Ultrazentrifuge XL 80). The pellet was resuspended in 30 ml ice-cold Tris buffer (20 mM TRIS (pH 7.4), 5 μg/ml Pepstatin A, 0.1 mM PMSF, 3 mM EDTA) by pipetting through a 10 ml serological pipet and centrifuged for 1 h at 4° C. at 60.000 g. A final resuspension was performed in a small volume of ice-cold Tris buffer (see above) by pressing through a serological pipet followed by ultrasonic treatment with a Branson Sonifier W-250 (Settings: Timer 1; Output Control 3; Duty Cycle constant; 1 cycle). Protein concentration was determined (BCA-Kit; Pierce) and aliquots stored at −80° C. or in liquid nitrogen for long-term storage.\nAll receptor binding experiments were carried out in the corresponding assay buffer in a total volume of 200 μl in the presence of various concentrations of test compound (10^−5 M to 10^−9 M, tenfold serial dilution, duplicate determinations). The assays were terminated by filtration on polyethylenimine (PEI 0.1% or 0.3%) presoaked Packard Unifilter Plates (GF/C or GF/B) with a Tomtec MachIII U 96well-plate harvester. After the plates had been dried for 2 h at 55° C. in a drying chamber scintillation cocktail (BetaPlate Scint; PerkinElmer) was added. Radioactivity was measured in a Microbeta Trilux two hours after the addition of the scintillation mixture. Data derived from liquid scintillation counting were analysed by iterative non-linear regression analysis with the use of the Statistical Analysis System (SAS): a program similar to “LIGAND” as described by Munson and Rodbard (Analytical Biochemistry 107, 220-239 (1980).\nHEK293 cells stably expressing the h-5-HT6 receptor (NCBI Reference Sequence XM 001435) were cultured in RPMI1640 medium supplemented with 25 mM HEPES, 10% fetal calf serum and 1-2 mM glutamine. The membrane preparation was performed as described in section 1. […] Non-specific binding was defined with 1 μM methiothepin. The binding reaction was carried out for 3.5 h at room temperature. During the incubation, the plates were shaken on a plate shaker at 100 rpm and terminated by filtration on Packard Unifilter GF/C (0.1% PEI) plates, followed by 2 wash cycles with ice-cold 50 mM Tris-HCl, 5 mM CaCl2.\nData derived from liquid scintillation counting were analyzed by iterative non-linear regression analysis with the use of the Statistical Analysis System (SAS): a program similar to “LIGAND” as described by Munson and Rodbard (Anal. Biochem. 1980, 107, 220-239). Fitting was performed according to formulae described by Feldman (Anal. Biochem. 1972, 48, 317-338). IC50, nH and Ki values were expressed as geometrical mean.", "note": "Counter-ions that a name gives are not always drawn."}
{"smiles": "O=S(=O)(c1ccccc1)c1cnc2c(N3CC4CCNC4C3)cccc2c1", "note": "(stereo not drawn) [Example 1, 8-(Hexahydropyrrolo[3,4-b]pyrrol-5(1H)-yl)-3-(phenylsulfonyl)quinoline hydrochloride]", "values": [{"measurement": "Ki", "value": "< 0.01", "unit": "µM"}]}
{"smiles": "O=C(OCc1ccccc1)N1CC2CN(c3cccc4cc(S(=O)(=O)c5ccccc5)cnc34)C2C1", "note": "(stereo not drawn) [Example 2, Benzyl 6-(3-(phenylsulfonyl)quinolin-8-yl)-3,6-diazabicyclo[3.2.0]heptane-3-carboxylate]", "values": [{"measurement": "Ki", "value": "< 0.25", "unit": "µM"}]}
{"smiles": "CC(C)(C)OC(=O)N1CCC2CN(c3cccc4cc(S(=O)(=O)c5ccccc5)cnc34)CC2C1", "note": "(stereo not drawn) [Example 3, tert-butyl 2-(3-(phenylsulfonyl)quinolin-8-yl)hexahydro-1H-pyrrolo[3,4-c]pyridine-5(6H)-carboxylate]", "values": [{"measurement": "Ki", "value": "< 0.25", "unit": "µM"}]}
{"smiles": "O=S(=O)(c1ccccc1)c1cnc2c(N3CC4CCNCC4C3)cccc2c1", "note": "(stereo not drawn) [Example 4, 3-(Phenylsulfonyl)-8-(1H-pyrrolo[3,4-c]pyridin-2(3H,3aH,4H,5H,6H,-7H,7aH)-yl)quinoline]", "values": [{"measurement": "Ki", "value": "< 0.01", "unit": "µM"}]}
{"smiles": "O=S(=O)(c1ccccc1)c1cnc2c(N3CCCC4NCCCC43)cccc2c1", "note": "(stereo not drawn) [Example 10, 1-(3-(phenylsulfonyl)quinolin-8-yl)decahydro-1,5-naphthyridine]", "values": [{"measurement": "Ki", "value": "< 0.25", "unit": "µM"}]}
{"smiles": "O=S(=O)(c1ccccc1)c1cnc2c(N3CC[C@H]4CNC[C@H]43)cccc2c1", "note": "[Example 12, 8-((3aS,6aS)-hexahydropyrrolo[3,4-b]pyrrol-1(2H)-yl)-3-(phenylsulfonyl)-quinoline]", "values": [{"measurement": "Ki", "value": "< 0.01", "unit": "µM"}]}
{"smiles": "O=S(=O)(c1ccc(F)cc1)c1cnc2c(N3CC4CCNCC4C3)cccc2c1", "note": "(stereo not drawn) [Example 13, 3-(4-fluorophenylsulfonyl)-8-(1H-pyrrolo[3,4-c]pyridin-2(3H,3aH,4H,5H,6H,7H,7aH)-yl)quinoline]", "values": [{"measurement": "Ki", "value": "< 0.01", "unit": "µM"}]}
{"smiles": "O=S(=O)(c1ccc(F)cc1)c1cnc2c(N3CC4CNCC4C3)cccc2c1", "note": "(stereo not drawn) [Example 14, 3-(4-fluorophenylsulfonyl)-8-(hexahydropyrrolo[3,4-c]pyrrol-2(1H)-yl)quinoline]", "values": [{"measurement": "Ki", "value": "< 0.01", "unit": "µM"}]}
{"smiles": "CC(C)(C)OC(=O)N1CC2CN(c3cccc4cc(S(=O)(=O)c5cccc(OC(F)(F)F)c5)cnc34)CC2C1", "note": "(stereo not drawn) [Example 15, tert-butyl 5-(3-(3-(trifluoromethoxy)phenylsulfonyl)quinolin-8-yl)hexahydropyrrolo[3,4-c]pyrrole-2 (1H)-carboxylate]", "values": [{"measurement": "Ki", "value": "< 0.05", "unit": "µM"}]}
{"smiles": "O=S(=O)(c1cccc(OC(F)(F)F)c1)c1cnc2c(N3CC4CNCC4C3)cccc2c1", "note": "(stereo not drawn) [Example 16, 8-(hexahydropyrrolo[3,4-c]pyrrol-2(1H)-yl)-3-(3-(trifluoromethoxy)-phenylsulfonyl)quinoline]", "values": [{"measurement": "Ki", "value": "< 0.01", "unit": "µM"}]}
{"smiles": "O=S(=O)(c1cccc(N2CC3CNCC3C2)c1)c1cnc2c(N3CC4CNCC4C3)cccc2c1", "note": "(stereo not drawn) [Example 18, 8-(hexahydropyrrolo[3,4-c]pyrrol-2(1H)-yl)-3-(3-(hexahydropyrrolo[3,4-c]pyrrol-2(1H)-yl)phenylsulfonyl)quinoline]", "values": [{"measurement": "Ki", "value": "< 0.01", "unit": "µM"}]}
{"smiles": "CC(C)(C)OC(=O)N1CCC2CN(c3cccc4cc(S(=O)(=O)c5cccc(OC(F)(F)F)c5)cnc34)CC2C1", "note": "(stereo not drawn) [Example 19, tert-butyl 2-(3-(3-(trifluoromethoxy)phenylsulfonyl)quinolin-8-yl)hexahydro-1H-pyrrolo[3,4-c]pyridine-5(6H)-carboxylate]", "values": [{"measurement": "Ki", "value": "< 0.05", "unit": "µM"}]}
{"smiles": "O=S(=O)(c1cccc(OC(F)(F)F)c1)c1cnc2c(N3CC4CCNCC4C3)cccc2c1", "note": "(stereo not drawn) [Example 20, 8-(1H-pyrrolo[3,4-c]pyridin-2(3H,3aH,4H,5H,6H,7H,7aH)-yl)-3-(3-(trifluoromethoxy)phenylsulfonyl)quinoline]", "values": [{"measurement": "Ki", "value": "< 0.01", "unit": "µM"}]}
{"smiles": "O=S(=O)(c1cccc(C(F)(F)F)c1)c1cnc2c(N3CC4CCNC4C3)cccc2c1", "note": "(stereo not drawn) [Example 22, 8-(hexahydropyrrolo[3,4-b]pyrrol-5(1H)-yl)-3-(3-(trifluoromethyl)-phenylsulfonyl)quinoline]", "values": [{"measurement": "Ki", "value": "< 0.01", "unit": "µM"}]}
{"smiles": "O=S(=O)(c1cccc(C(F)(F)F)c1)c1cnc2c(N3C[C@H]4CNC[C@H]4C3)cccc2c1", "note": "[Example 24, 8-((3aR,6aS)-hexahydropyrrolo[3,4-c]pyrrol-2(1H)-yl)-3-(3-(trifluoromethyl)phenylsulfonyl)quinoline]", "values": [{"measurement": "Ki", "value": "< 0.01", "unit": "µM"}]}
{"smiles": "O=S(=O)(c1cccc(F)c1)c1cnc2c(N3CC[C@H]4CNC[C@H]43)cccc2c1", "note": "[Example 26, 3-(3-Fluoro-benzenesulfonyl)-8-(3aS,6aS)-hexahydropyrrolo[3,4-b]pyrrol-1-yl-quinoline hydrochloride]", "values": [{"measurement": "Ki", "value": "< 0.01", "unit": "µM"}]}
{"smiles": "O=S(=O)(c1cccc(F)c1)c1cnc2c(N3C[C@H]4CN[C@H]4C3)cccc2c1", "note": "[Example 28, 8-(1R,5R)-3,6-Diaza-bicyclo[3.2.0]hept-3-yl-3-(3-fluoro-benzenesulfonyl)-quinoline hydrochloride]", "values": [{"measurement": "Ki", "value": "< 0.01", "unit": "µM"}]}
{"smiles": "O=S(=O)(c1cccc(F)c1)c1cnc2c(N3CC4CCNC4C3)cccc2c1", "note": "(stereo not drawn) [Example 29, 3-(3-Fluoro-benzenesulfonyl)-8-(hexahydro-pyrrolo[3,4-b]pyrrol-5-yl)-quinoline hydrochloride]", "values": [{"measurement": "Ki", "value": "< 0.01", "unit": "µM"}]}
{"smiles": "O=S(=O)(c1cccc(F)c1)c1cnc2c(N3C[C@H]4CNC[C@H]4C3)cccc2c1", "note": "[Example 30, 3-(3-Fluoro-benzenesulfonyl)-8-(3aR,6aS)-hexahydro-pyrrolo[3,4-c]pyrrol-2-yl-quinoline hydrochloride]", "values": [{"measurement": "Ki", "value": "< 0.01", "unit": "µM"}]}
{"smiles": "O=S(=O)(c1cccc(F)c1)c1cnc2c(N3CC4CCCNC4C3)cccc2c1", "note": "(stereo not drawn) [Example 31, 6-(3-(3-fluorophenylsulfonyl)quinolin-8-yl)octahydro-1H-pyrrolo[3,4-b]pyridin-1-ium chloride]", "values": [{"measurement": "Ki", "value": "< 0.01", "unit": "µM"}]}
{"smiles": "O=S(=O)(c1cccc(F)c1)c1cnc2c(N3C[C@@H]4CN[C@@H]4C3)cccc2c1", "note": "[Example 32, (1S,5S)-3-(3-(3-fluorophenylsulfonyl)quinolin-8-yl)-3-aza-6-azoniabicyclo[3.2.0]heptane hydrochloride]", "values": [{"measurement": "Ki", "value": "< 0.01", "unit": "µM"}]}
{"smiles": "O=S(=O)(c1ccc(F)cc1)c1cnc2c(N3CC4CCNC4C3)cccc2c1", "note": "(stereo not drawn) [Example 39, 3-(4-fluorophenylsulfonyl)-8-(hexahydropyrrolo[3,4-b]pyrrol-5(1H)-yl)quinoline]", "values": [{"measurement": "Ki", "value": "< 0.01", "unit": "µM"}]}
{"smiles": "O=S(=O)(c1ccccc1)c1cnc2c(N3CC4CN(Cc5ccccc5)CC4C3)cccc2c1", "note": "(stereo not drawn) [Example 40, 8-(5-benzylhexahydropyrrolo[3,4-c]pyrrol-2(1H)-yl)-3-(phenylsulfonyl)-quinoline]", "values": [{"measurement": "Ki", "value": "< 0.01", "unit": "µM"}]}
{"smiles": "CN1CCC2CN(c3cccc4cc(S(=O)(=O)c5ccccc5)cnc34)CC2C1", "note": "(stereo not drawn) [Example 41, 8-(5-methyl-1H-pyrrolo[3,4-c]pyridin-2(3H,3aH,4H,5H,6H,7H,7aH)-yl)-3]", "values": [{"measurement": "Ki", "value": "< 0.05", "unit": "µM"}]}
{"smiles": "O=S(=O)(c1ccccc1)c1cnc2c(N3CCC4NC5CCCCC5C4C3)cccc2c1", "note": "(stereo not drawn) [Example 42, 2-(3-(phenylsulfonyl)quinolin-8-yl)dodecahydro-1H-pyrido[4,3-b]indole]", "values": [{"measurement": "Ki", "value": "< 0.25", "unit": "µM"}]}
{"smiles": "O=S(=O)(c1ccccc1)c1cnc2c(N3CC4CNCC4C3)cccc2c1", "note": "(stereo not drawn) [Example 43, 8-(hexahydropyrrolo[3,4-c]pyrrol-2(1H)-yl)-3-(phenylsulfonyl)quinoline]", "values": [{"measurement": "Ki", "value": "< 0.01", "unit": "µM"}]}
{"smiles": "O=S(=O)(c1cccc(C(F)(F)F)c1)c1cnc2c(N3CC4CCNCC4C3)cccc2c1", "note": "(stereo not drawn) [Example 44, 8-(1H-pyrrolo[3,4-c]pyridin-2(3H,3aH,4H,5H,6H,7H,7aH)-yl)-3-(3-(trifluoromethyl)phenylsulfonyl)quinoline]", "values": [{"measurement": "Ki", "value": "< 0.01", "unit": "µM"}]}
